Read-outs that look alike come from different tables or passages of the source.
Assays:
S. aureus = assay: Scintillation counting of resected tissues in S. aureus thigh infection vs LPS; type: in vivo, CBA/J mice; settings: live S. aureus right thigh, 50 μg LPS left thigh, IV
Experimental: We next investigated whether [^3H]-2-F-PABA was capable of detecting infection with S. aureus in vivo. […] [^3H]-2-F-PABA was injected IV using a tail vein catheter. Mice were sacrificed following injection, tissues were then resected and radiotracer uptake measured by scintillation counting.

[1] = test system: Mycobacterium tuberculosis
Experimental: (§3) In vitro uptake assays: Freeze dried reference strains of various bacterial species were purchased from American Type Culture Collection (Manassas, Va.) and grown to mid-log phase (OD600 1.0) in Lysogeny Broth (LB) or Middlebrook 7H9 broth supplemented with 10% oleic acid-albumin-dextrose-catalase (Difco, Detroit, Mich.) and 0.05% Tween 80 (Sigma). The number of colony forming units (CFUs) were enumerated by dilution and plating onto solidified media. Tracer uptake assays were performed by incubating bacterial cultures with 7.4 kBq per ml culture of tracer at 37° C. with rapid agitation for 4 hours, with sampling at 0, 30, 120, and 240 minutes. As a control, heat killed (90° C. for 20 minutes) bacteria were similarly incubated with each tracer. Bacteria were pelleted by centrifugation and washed three times with PBS. The activity for each pellet was measured using an automated gamma counter (1282 Compugamma CS Universal gamma counter, LKB Wallac). Background counts were subtracted from sample counts. Six independent replicates were used for each tracer, and for each bacterial strain. Uptake was expressed as the percentage of total tracer added to the culture that resided within the cell pellet.

[2] = test system: Staphylococcus aureus, Escherichia coli, Mycobacterium smegmatis; assay: Differential intracellular accumulation in three model bacteria; settings: S. aureus, E. coli, M. smegmatis
Experimental: as §3

J774 macrophages = assay: Tracer uptake in host cells (J774 macrophages); type: cell-based; settings: for accumulation in eukaryotic cell line: J774 macrophage (data not shown)
Staphylococcus aureus = assay: Intracellular tracer uptake assay in S. aureus cultures; type: cell-based; settings: for intracellular uptake / probe incorporated by bacteria (percent of total radioactivity): S. aureus; for probe incorporated by bacteria (percent of total radioactivity): gram positive control, 120 minutes
Escherichia coli = assay: Intracellular tracer uptake assay in E. coli cultures; type: cell-based
heat killed bacteria = assay: Tracer uptake in heat killed bacteria (negative control); type: cell-based
Text: Background counts were subtracted from sample counts.
(§1) [^18F]FDS uptake and imaging. […] Tissues were collected for direct gamma counting.

[3] = test system: Human Brain Microvascular Endothelial Cells (HBMEC); settings: 2 h
Mycobacterium smegmatis = assay: Intracellular tracer uptake assay in M. smegmatis cultures; settings: 2 hours of incubation
Experimental: as §3

WEHI 164 fibroblasts = assay: Tracer uptake in WEHI 164 fibroblasts; type: cell-based; settings: WEHI 164 fibroblast (data not shown)
E. coli = settings: for right thigh vs. left thigh uptake ratio (gamma counts of resected tissues) / PET signal intensity, infected right thigh versus control left thigh (ROIs): live E. coli right thigh, heat killed E. coli left thigh; for PET signal intensity, infected right thigh versus control left thigh (ROIs): 8 hours incubation
[4] = test system: Enterobacteriaceae family; assay: [18F]FDS uptake in representative organisms: Enterobacteriaceae; type: cell-based; settings: members of the Enterobacteriaceae family
Experimental: as §1
(§2) To further assess the specificity of uptake, E. coli cultures were co-incubated with [^18F]FDS and increasing concentrations of unlabeled sorbitol (FIG. 6B). […] The presence of a srl gene cassette responsible for sorbitol transport, phosphorylation, and oxidation was noted within the annotated genome of E. coli. To predict the range of organisms capable of [^18F]FDS uptake, and therefore detection by PET, the srlD, the gene encoding E. coli sorbitol-6-phosphate dehydrogenase was used to query the UniProtKB database of genome sequenced bacterial species. Alignment and percentage identity was calculated using ClustalOmega. We then selected representative organisms from this panel to test for [^18F]FDS uptake (FIG. 6C).

[5] = test system: Enterococcus, Staphylococcus and Streptococcus species; assay: [18F]FDS uptake in representative organisms: gram positive organisms; type: cell-based
Experimental: as §1, §2

Pseudomonas aeruginosa = assay: [18F]FDS uptake in representative organisms: Pseudomonas aeruginosa; type: cell-based; settings: aerobic gram-negative rod Pseudomonas aeruginosa
Experimental: as §1, §2

K. pneumoniae [6] = assay: PET imaging and gamma counting in K. pneumoniae pulmonary infection model; type: in vivo, CBA/J mice
K. pneumoniae [7] = assay: Intracellular tracer uptake assay in K. pneumoniae cultures; settings: after 120 minutes
Experimental: as §3

E. coli vs S. aureus = assay: PET imaging and gamma counting in mixed infection model (E. coli right thigh, S. aureus left thigh); settings: 6 hours incubation, imaging
[8] = M. tb, ^3H labeled tracers, 18 hours of incubation

`Nc1ccc(C(=O)O)c(F)c1` [2-F-PABA, 2-fluoro-PABA] was tested, and the “right thigh vs. left thigh uptake ratio (scintillation counting)” value (S. aureus) was 2.62±0.98 and the intracellular uptake [1, 8] was 29.4%.

`Nc1ccc(C(=O)O)cc1F` [3-F-PABA, 3-fluoro-PABA] showed an intracellular uptake [1, 8] of 11.2%.

For `NC(CCCC(N)C(=O)O)C(=O)O` (stereo not shown) [DAP, 2,6-diaminopimelic acid], the “species that take up the compound (differential uptake)” value [2] was “E. coli and M. smegmatis”.

For `Nc1ccc(C(=O)O)cc1` [PABA, p-aminobenzoic acid], the accumulation in host-cells (J774 macrophages; J774 macrophages, corresponding time-points (2 and 18 hours)) was “no significant accumulation”, the uptake saturability/specificity (Staphylococcus aureus; S. aureus mid log cultures) was “saturable and specific” and the uptake saturability/specificity (Escherichia coli; E. coli mid log cultures) was “saturable and specific”. For the same molecule, the “uptake in heat killed bacteria” value (heat killed bacteria) was “no uptake”, the “accumulation (percent of total radioactivity in bacterial pellet)” value ([1]; 2 h) was 32.9% and the “accumulation (percent of total radioactivity in bacterial pellet)” value ([1]; 18 h) was 96.3%. For the same molecule, the intracellular uptake ([1]; 18 h) was 58.5% and the “uptake on addition of excess unlabelled tracer” value ([1]; M. tuberculosis, excess unlabelled tracer) was “saturable and specific”.

With `O=C[C@H](O)[C@@H](O)[C@H](O)CO` [XYL, D-xylose] the “species that take up the compound (differential uptake)” value [2] was “E. coli alone”.

`OC[C@@H](O)[C@@H](O)[C@H](O)[C@H](O)CO` [[^14C] D-mannitol, D-mannitol] showed an uptake (J774 macrophages; 2 h) of under 5%, an intracellular uptake (Staphylococcus aureus; 30 minutes, 5 mM glucose) of 33% and an intracellular uptake (Staphylococcus aureus; 30 minutes, 10 mM glucose) of 30%. The intracellular uptake (Staphylococcus aureus; 30 minutes, without any glucose in the media) was 53.5%, the intracellular uptake (Staphylococcus aureus; 2 hours of incubation) was 66% and the intracellular uptake (Escherichia coli; E. coli, 2 hours of incubation) was 82%. For the same molecule, the “uptake in heat killed bacteria” value (heat killed bacteria) was “No uptake”, the uptake [3] was under 5% and the intracellular uptake (Mycobacterium smegmatis) was 83%.

For `OC[C@H]1OC(O)[C@H]([18F])[C@@H](O)[C@@H]1O` (stereo partly shown) [[^18F]FDG, 2-[^18F]-fluorodeoxyglucose, reference compound], the “accumulation in eukaryotic cell line” value (J774 macrophages) was “accumulated”, the “probe incorporated by bacteria (percent of total radioactivity)” value (Staphylococcus aureus) was 50.3%±3.1% and the “accumulation in eukaryotic cell line” value (WEHI 164 fibroblasts) was “accumulated”. For the same molecule, the “uptake in heat killed bacteria” value (heat killed bacteria) was “did not incorporate”, the “right thigh vs. left thigh uptake ratio (gamma counts of resected tissues)” value (E. coli) was 1.03±0.09 and the “PET signal intensity, infected right thigh versus control left thigh (ROIs)” value (E. coli) was “did not produce a significant difference”. For the same molecule, the “sites of PET signal concentration” value (E. coli; mice, CT coregistration) was “heart and bladder”.

With `OC[C@@H](O)[C@@H](O)[C@H](O)[C@@H]([18F])CO` [[^18F]FDS, 2-[^18F]-fluorodeoxysorbitol] the “accumulation in eukaryotic cell line” value (J774 macrophages) was “not”, the “probe incorporated by bacteria (percent of total radioactivity)” value (Staphylococcus aureus) was 0.47%±0.09% and the “probe associated with bacteria (percent of total radioactivity)” value (Escherichia coli; E. coli K12, after 120 minutes) was 72.2%±9.0%. For the same molecule, the “concentration of unlabeled sorbitol that outcompetes uptake” value (Escherichia coli; E. coli co-incubated with increasing unlabeled sorbitol) was “above 40 ug/ml”, the “concentration of unlabeled sorbitol that outcompetes uptake” value (Escherichia coli; E. coli co-incubated with increasing unlabeled sorbitol (FIG. 6B legend)) was “above 40 μg/ml” and the “accumulation in eukaryotic cell line” value (WEHI 164 fibroblasts) was “not”. For the same molecule, the “uptake in heat killed bacteria” value (heat killed bacteria) was “did not incorporate”, the “accumulation of the probe” value [4] was “accumulated” and the “accumulation of the probe” value [5] was “did not accumulate”. The “accumulation of the probe” value (Pseudomonas aeruginosa) was “did not accumulate”, the “lung vs. blood gamma count ratio” value (K. pneumoniae [6]) was 10.89±4.09 and the “ratio of standardized uptake values, infiltrated vs normal lung tissue ROIs” value (K. pneumoniae [6]; 18.5 MBq (data not shown)) was 5.02±66.33. The “right thigh vs. left thigh uptake ratio (gamma counts of resected tissues)” value (E. coli) was 16.37±4.12, the “PET signal intensity, infected right thigh versus control left thigh (ROIs)” value (E. coli) was 12 fold and the “route of clearance from circulation” value (E. coli; mice, over 120 minutes of recording (data not shown)) was “predominantly by the kidneys”. For the same molecule, the “probe associated with bacteria (percent of total radioactivity)” value (K. pneumoniae [7]) was 71.1%±8.6% and the “PET signal at E. coli infected thigh versus S. aureus infected thigh” value (E. coli vs S. aureus) was “significantly more intensity”.

Source: patent US11268958B2, “Bacteria-specific labeled substrtates as imaging biomarkers to diagnose, locate, and monitor infections” (THE JOHNS HOPKINS UNIVERSITY, priority 2012, dated 2022)
